“And” between values parts separate entries of the source, which are not always exact repeats. Equal entries are not always repeated.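 Exposure lasted 48 hours, with cells grown in 96-well plates and compounds tested at five concentrations. At the GI50, growth is halved. TGI denotes the concentration required for complete inhibition of growth.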

Common to all, as to experiment: inhibition of tumour cell growth, NCI panel, 48 h
In assay [1] the test system is SF-268 CNS.
Assay [2] concerns SF-295 CNS.
For assay [3], the system named is A498 renal.
The test system of assay [4] is SK-MEL-2 melanoma.
For assay [5], the system named is BT-549 breast.
Assay [6] deals with RXF 393 renal.
Assay [7] relates to M14 melanoma.
Assay [8] concerns SK-MEL-28 melanoma.
Assay [9] has as its system MDA-MB-231 breast.
Assay [10] concerns HT29 colon.

`Cc1ccc2c(c1)c1ccc3c(c1n2C)C(=O)C=CC3=O`: the TGI was above 10 µM in assay [1]; above 10 µM in [2]; above 8.82 µM in assay [3]; above 10 µM in [4]; 2.83 µM in assay [5]; 3.46 µM in [6]. The TGI in assay [7] is 4.54 µM; in assay [8], 4.76 µM; in assay [9] it was 6.01 µM; in [10], above 10 µM.
On to `O=C(CC(=O)Nc1ccccc1)NNC(Sc1ccccc1)c1cc(N=Nc2ccc(Br)cc2)ccc1O` (configuration not stated), for which the TGI in assay [1] was 8.9 µM; in [2] it was above 10 µM; in assay [3], 5.84 µM; in [4], above 10 µM; in [5], above 10 µM; in assay [6], above 10 µM. Also, the TGI in [7] is 3.47 µM; in [8] it was above 10 µM; in [9], above 10 µM; in assay [10], above 10 µM.
Consider `COc1ccc(/C=C\c2cc(OC)c(OC)c(OC)c2)cc1OCC(=O)O`, for which the TGI in [1] is above 100 µM; in assay [2], 35.8 µM; in [3], above 83 µM; in assay [4] it was above 53.9 µM; in [5], above 100 µM; in assay [6], 39.2 µM. The TGI is 62.9 µM in assay [7], above 100 µM in [8], above 92.7 µM in assay [9] and above 100 µM in assay [10].
Regarding `O=C(Nc1nc(-c2c[nH]c3ccccc23)cs1)c1n[nH]c(=O)c2ccccc12`, the GI50 was 1.25 µM in assay [1]; 1550 nM in assay [2]; 22 µM in [3]; 13.4 µM in assay [4]; 3.89 µM in assay [5]; 446 nM in [6]. Further, the GI50 in assay [7] was 3.48 µM; in [8], 12.4 µM; in assay [9] it was 25.7 µM; in assay [10], 1190 nM. Moreover, the TGI is above 46.2 µM in [1]; 21.9 µM in assay [2]; above 100 µM in assay [3]; above 100 µM in assay [4]; above 81.2 µM in [5]; 20.7 µM in assay [6]. For the same compound, the TGI in [7] is 20.1 µM; in assay [8], 49.2 µM; in assay [9] it was above 100 µM; in assay [10], above 100 µM.
As to `CCn1cc(-c2ccnc3[nH]c(-c4cccc(CN(C)C)c4)cc23)c(-c2ccc(NC(=O)N(C)C)cc2)n1`, the GI50 in assay [1] was 3.03 µM and 2.07 µM; in [2], 484 nM and 408 nM; in assay [3] it was 0.0673 µM and 0.519 µM; in [4], 2.43 µM and 2.19 µM; in [5], 1.45 µM and 2.3 µM; in assay [6], 356 nM and 1180 nM. Further, the GI50 is 1.91 µM and 2.31 µM in assay [7]; 3.45 µM and > 10 µM in assay [8]; 3.52 µM and 2.95 µM in assay [9]; 1890 nM and 1400 nM in [10]. Further, the TGI in [1] was 20.9 µM and > 10 µM; in [2], 11.7 µM and > 10 µM; in [3] it was 0.749 µM and 3.28 µM; in assay [4] it was 9.87 µM and > 10 µM; in [5] it was 17.3 µM and > 10 µM; in assay [6], 5.54 µM and > 10 µM. Besides, the TGI was 16.9 µM and > 10 µM in assay [7]; 17.1 µM and > 10 µM in assay [8]; 19.8 µM and > 10 µM in assay [9]; 22.6 µM and > 10 µM in assay [10].
Consider `CC(C)=CCC1=C(O)c2ccccc2C(=O)C1=O`, for which the GI50 is > 100 µM and 11.8 µM in assay [1]; > 100000 nM and 22700 nM in assay [2]; 68.7 µM in [4]; above 100000 nM in assay [6]; > 100 µM and 45.8 µM and 16.3 µM in [7]; > 100 µM and 23 µM in assay [8]. For the same compound, the GI50 in assay [9] is 21 µM. Further, the TGI is above 100 µM in [1]; above 100 µM in [2]; above 100 µM in assay [3]; above 88.3 µM in assay [4]; above 100 µM in assay [5]; above 100 µM in [6]. Besides, the TGI in assay [7], in assay [8], in assay [9] and in assay [10] was above 100 µM throughout.
As for `COc1cc2c3c(n(C)c(=O)c2cc1OC)-c1cc2c(cc1C3=O)OCO2`, the TGI is above 100 µM in assay [1]; above 61.3 µM in assay [2]; above 97 µM in assay [3]; above 72.2 µM in [4]; above 100 µM in assay [5]; above 62.4 µM in assay [6]. In addition, the TGI in [7], in assay [8], in assay [9] and in assay [10] was above 100 µM in each case.
In the case of `COC(=O)C1=CN(CC2=CC(=O)C(C)=CC2=O)C=C(C(=O)OC)C1c1ccccc1OC`, the GI50 is 18.7 µM in assay [1]; 24300 nM in assay [2]; 31.4 µM in assay [3]; 45.2 µM in assay [4]; 17.4 µM in assay [5]; 16200 nM in assay [6]. Also, the GI50 in assay [7] was 17.3 µM; in assay [8], 28 µM; in assay [9], 9.66 µM; in [10], 40900 nM. The TGI in assay [1] was 58.6 µM; in [2] it was above 55.5 µM; in [3], above 87.9 µM; in assay [4], above 100 µM; in [5], 41 µM; in [6], 32.3 µM. The TGI in assay [7] was 32.7 µM; in [8] it was above 57.5 µM; in assay [9] it was 28 µM; in assay [10] it was above 100 µM.
